target: PI3Kγ (p110γ) Recombinant Human Protein (Homo sapiens (Human), UniProt P48736); assay: PI3K-γ Scintillation Proximity Assay; type: biochemical; details: read-out: PI3Kγ IC50
Procedure: [γ-^33P]ATP (10 mCi/mL) and Wheat Germ Agglutinin (WGA) YSi SPA Scintillation Beads was purchased from Perkin-Elmer (Waltham, Mass.). […] PI3Kγ (p110γ) Recombinant Human Protein was purchased from Life technology (Grand Island, N.Y.). ATP, MgCl2, DTT, EDTA, MOPS and CHAPS were purchased from Sigma-Aldrich (St. Louis, Mo.).
The kinase reaction was conducted in polystyrene 384-well Greiner Bio-one white plate from Thermo Fisher Scientific in a final volume of 25 μL. Inhibitors were first diluted serially in DMSO and added to the plate wells before the addition of other reaction components. The final concentration of DMSO in the assay was 2%. The PI3Kγ assay was carried out at room temperature in 20 mM MOPS, pH 6.7, 10 mM MgCl2, 5 mM DTT and CHAPS 0.03%. Reactions were initiated by the addition of ATP, the final reaction mixture consisted of 20 μM PIP2, 2 μM ATP, 0.5 μCi [γ-^33P] […] The final concentration of SPA beads is 1.0 mg/mL. After the plate sealing, plates were shaken overnight at room temperature and centrifuged at 1500 rpm for 10 min, the radioactivity of the product was determined by scintillation counting on Topcount (Perkin-Elmer). IC50 determination was performed by fitting the curve of percent of the solvent control activity versus the log of the inhibitor concentration using the GraphPad Prism 6.0 software.

Sequence of PI3Kγ (p110γ) Recombinant Human Protein (P48736 whole entry): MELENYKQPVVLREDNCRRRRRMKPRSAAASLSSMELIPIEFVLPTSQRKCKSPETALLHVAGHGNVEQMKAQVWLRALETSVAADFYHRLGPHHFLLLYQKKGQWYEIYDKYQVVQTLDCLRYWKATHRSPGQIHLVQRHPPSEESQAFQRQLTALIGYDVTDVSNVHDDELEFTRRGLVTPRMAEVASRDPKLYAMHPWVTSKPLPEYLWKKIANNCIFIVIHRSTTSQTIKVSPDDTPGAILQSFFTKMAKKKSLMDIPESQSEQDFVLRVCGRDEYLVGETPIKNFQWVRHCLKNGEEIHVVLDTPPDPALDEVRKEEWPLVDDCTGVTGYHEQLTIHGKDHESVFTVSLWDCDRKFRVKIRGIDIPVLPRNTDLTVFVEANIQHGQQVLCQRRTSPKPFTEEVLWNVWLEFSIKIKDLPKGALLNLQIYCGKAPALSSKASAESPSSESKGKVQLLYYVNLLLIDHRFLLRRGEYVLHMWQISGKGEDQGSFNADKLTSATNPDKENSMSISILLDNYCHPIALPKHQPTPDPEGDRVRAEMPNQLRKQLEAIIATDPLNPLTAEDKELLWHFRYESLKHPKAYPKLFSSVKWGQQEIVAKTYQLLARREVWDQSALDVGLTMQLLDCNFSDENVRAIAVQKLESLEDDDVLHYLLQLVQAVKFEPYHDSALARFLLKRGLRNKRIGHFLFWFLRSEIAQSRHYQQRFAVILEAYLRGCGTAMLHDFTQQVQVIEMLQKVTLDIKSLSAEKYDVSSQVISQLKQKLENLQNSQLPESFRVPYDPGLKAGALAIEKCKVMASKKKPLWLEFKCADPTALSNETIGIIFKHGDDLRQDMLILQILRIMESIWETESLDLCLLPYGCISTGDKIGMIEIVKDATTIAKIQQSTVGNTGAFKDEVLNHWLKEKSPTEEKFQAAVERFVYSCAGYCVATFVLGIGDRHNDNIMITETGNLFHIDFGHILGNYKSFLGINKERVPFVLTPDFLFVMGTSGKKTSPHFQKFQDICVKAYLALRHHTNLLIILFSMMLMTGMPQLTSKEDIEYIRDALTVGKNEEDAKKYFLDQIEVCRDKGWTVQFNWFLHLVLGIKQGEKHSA

Structure (SMILES) | IC50
Cc1ccc(S(=O)(=O)Nc2c(C)nn(C)c2C)cc1-c1cnc2c(N)ncnn12 [Example 214, 3-(4-Aminoimidazo[2,1-f][1,2,4]triazin-7-yl)-4-methyl-N-(1,3,5-trimethyl-1H-pyrazol-4-yl)benzenesulfonamide] | < 100 nM
Cc1ccc(S(=O)(=O)N2CCCn3nccc32)cc1-c1cnc2c(N)ncnn12 [Example 215, 7-(5-((6,7-dihydropyrazolo[1,5-a]pyrimidin-4(5H)-yl)sulfonyl)-2-methylphenyl)imidazo[2,1-f][1,2,4]triazin-4-amine] | < 100 nM
Cc1ccc(S(=O)(=O)N2CCC(c3ccccn3)CC2)cc1-c1cnc2c(N)ncnn12 [Example 216, 7-(2-methyl-5-((4-(pyridin-2-yl)piperidin-1-yl)sulfonyl)phenyl)imidazo[2,1-f][1,2,4]triazin-4-amine] | < 100 nM
Cc1ccc(S(=O)(=O)N2CCC(C#N)CC2)cc1-c1cnc2c(N)ncnn12 [Example 217, 1-((3-(4-aminoimidazo[2,1-f][1,2,4]triazin-7-yl)-4-methylphenyl)sulfonyl)piperidine-4-carbonitrile] | < 100 nM
Cc1ccc(S(=O)(=O)N2CCCC(C(F)(F)F)C2)cc1-c1cnc2c(N)ncnn12 (stereo not shown) [Example 218, 7-(2-methyl-5-((3-(trifluoromethyl)piperidin-1-yl)sulfonyl)phenyl)imidazo[2,1-f][1,2,4]triazin-4-amine] | < 100 nM
Cc1ccc(S(=O)(=O)N2CC(C3CCOC3)C2)cc1-c1cnc2c(N)ncnn12 (stereo not shown) [Example 219, 7-(2-methyl-5-((3-(tetrahydrofuran-3-yl)azetidin-1-yl)sulfonyl)phenyl)imidazo[2,1-f][1,2,4]triazin-4-amine] | 100 to 500 nM
Cc1ccc(S(=O)(=O)N2CC3(CCOC3)C2)cc1-c1cnc2c(N)ncnn12 [Example 220, 7-(5-((6-oxa-2-azaspiro[3.4]octan-2-yl)sulfonyl)-2-methylphenyl)imidazo[2,1-f][1,2,4]triazin-4-amine] | < 100 nM
Cc1ccc(S(=O)(=O)N2C3CC4CC2CC(C3)O4)cc1-c1cnc2c(N)ncnn12 [Example 221, 7-(5-((-2-oxa-6-azaadamantan-6-yl)sulfonyl)-2-methylphenyl)imidazo[2,1-f][1,2,4]triazin-4-amine] | < 100 nM
Cc1ccc(S(=O)(=O)N2CCn3cnnc3C2C)cc1-c1cnc2c(N)ncnn12 (stereo not shown) [Example 222, 7-(2-methyl-5-((8-methyl-5,6-dihydro-[1,2,4]triazolo[4,3-a]pyrazin-7(8H)-yl)sulfonyl)phenyl)imidazo[2,1-f][1,2,4]triazin-4-amine] | < 100 nM
Cc1ccc(S(=O)(=O)N2CCn3ccnc3C2)cc1-c1cnc2c(N)ncnn12 [Example 223, 7-(5-((5,6-dihydroimidazo[1,2-a]pyrazin-7(8H)-yl)sulfonyl)-2-methylphenyl)imidazo[2,1-f][1,2,4]triazin-4-amine] | < 100 nM
Cc1ccc(S(=O)(=O)N2CCc3nc[nH]c3C2)cc1-c1cnc2c(N)ncnn12 [Example 224, 7-(2-methyl-5-((3,4,6,7-tetrahydro-5H-imidazo[4,5-c]pyridin-5-yl)sulfonyl)phenyl)imidazo[2,1-f][1,2,4]triazin-4-amine] | < 100 nM
Cc1ccc(S(=O)(=O)N2CCc3nn(C)cc3C2)cc1-c1cnc2c(N)ncnn12 [Example 225, 7-(2-methyl-5-((2-methyl-2,4,6,7-tetrahydro-5H-pyrazolo[4,3-c]pyridin-5-yl)sulfonyl)phenyl)imidazo[2,1-f][1,2,4]triazin-4-amine] | < 100 nM
CC(=O)NC1CCN(S(=O)(=O)c2ccc(C)c(-c3cnc4c(N)ncnn34)c2)CC1 [Example 226, N-(1-((3-(4-aminoimidazo[2,1-f][1,2,4]triazin-7-yl)-4-methylphenyl)sulfonyl)piperidin-4-yl)acetamide] | < 100 nM
CNC(=O)C1CCN(S(=O)(=O)c2ccc(C)c(-c3cnc4c(N)ncnn34)c2)CC1 [Example 227, 1-((3-(4-aminoimidazo[2,1-f][1,2,4]triazin-7-yl)-4-methylphenyl)sulfonyl)-N-methylpiperidine-4-carboxamide] | < 100 nM
Cc1ccc(S(=O)(=O)N2CCN(C)C(=O)C2)cc1-c1cnc2c(N)ncnn12 [Example 228, 4-((3-(4-aminoimidazo[2,1-f][1,2,4]triazin-7-yl)-4-methylphenyl)sulfonyl)-1-methylpiperazin-2-one] | < 100 nM
CC(=O)N1CCN(S(=O)(=O)c2ccc(C)c(-c3cnc4c(N)ncnn34)c2)CC1 [Example 229, 1-(4-((3-(4-aminoimidazo[2,1-f][1,2,4]triazin-7-yl)-4-methylphenyl)sulfonyl)piperazin-1-l)ethan-1-one] | < 100 nM

Structure (SMILES) | IC50
Cc1ccc(S(=O)(=O)N2CCN(c3ncccn3)CC2)cc1-c1cnc2c(N)ncnn12 [Example 230, 7-(2-methyl-5-((4-(pyrimidin-2-yl)piperazin-1-yl)sulfonyl)phenyl)imidazo[2,1-f][1,2,4]triazin-4-amine] | < 100 nM
Cc1ccc(S(=O)(=O)N2CCN(c3nccnc3C#N)CC2)cc1-c1cnc2c(N)ncnn12 [Example 231, 3-(4-((3-(4-aminoimidazo[2,1-f][1,2,4]triazin-7-yl)-4-methylphenyl)sulfonyl)piperazin-1-yl)pyrazine-2-carbonitrile] | < 100 nM
Cc1ccc(S(=O)(=O)N2CCN(c3ccc(C#N)cn3)CC2)cc1-c1cnc2c(N)ncnn12 [Example 232, 6-(4-((3-(4-aminoimidazo[2,1-f][1,2,4]triazin-7-yl)-4-methylphenyl)sulfonyl)piperazin-1-yl)nicotinonitrile] | < 100 nM
Cc1ccc(S(=O)(=O)NCc2cnccn2)cc1-c1cnc2c(N)ncnn12 [Example 233, 3-(4-aminoimidazo[2,1-f][1,2,4]triazin-7-yl)-4-methyl-N-(pyrazin-2-ylmethyl)benzenesulfonamide] | < 100 nM
Cc1ccc(S(=O)(=O)NC(c2ccccn2)C(F)(F)F)cc1-c1cnc2c(N)ncnn12 (stereo not shown) [Example 234, 3-(4-aminoimidazo[2,1-f][1,2,4]triazin-7-yl)-4-methyl-N-(2,2,2-trifluoro-1-(pyridin-2-yl)ethyl)benzenesulfonamide] | 100 to 500 nM
Cc1ccc(S(=O)(=O)NCc2cccc(C(F)(F)F)n2)cc1-c1cnc2c(N)ncnn12 [Example 235, 3-(4-aminoimidazo[2,1-f][1,2,4]triazin-7-yl)-4-methyl-N-((6-(trifluoromethyl)pyridin-2-yl)methyl)benzenesulfonamide] | < 100 nM
Cc1ccc(S(=O)(=O)NCc2ccnn2C)cc1-c1cnc2c(N)ncnn12 [Example 236, 3-(4-aminoimidazo[2,1-f][1,2,4]triazin-7-yl)-4-methyl-N-((1-methyl-1H-pyrazol-5-yl)methyl)benzenesulfonamide] | < 100 nM
Cc1nc(CNS(=O)(=O)c2ccc(C)c(-c3cnc4c(N)ncnn34)c2)no1 [Example 237, 3-(4-aminoimidazo[2,1-f][1,2,4]triazin-7-yl)-4-methyl-N-((5-methyl-1,2,4-oxadiazol-3-yl)methyl)benzenesulfonamide] | < 100 nM
Cc1ccc(S(=O)(=O)NC(CN)C2CC2)cc1-c1cnc2c(N)ncnn12 (stereo not shown) [Example 238, N-(2-amino-1-cyclopropylethyl)-3-(4-aminoimidazo[2,1-f][1,2,4]triazin-7-yl)-4-methylbenzenesulfonamide] | 100 to 500 nM
Cc1ccc(S(=O)(=O)NC(C)(C)CN2CCCC2)cc1-c1cnc2c(N)ncnn12 [Example 239, 3-(4-aminoimidazo[2,1-f][1,2,4]triazin-7-yl)-4-methyl-N-(2-methyl-1-(pyrrolidin-1-yl)propan-2-yl)benzenesulfonamide] | 500 to 2000 nM
Cc1ccc(S(=O)(=O)N2CCn3ncc(C#N)c3C2)cc1-c1cnc2c(N)ncnn12 [Example 240, 5-((3-(4-aminoimidazo[2,1-f][1,2,4]triazin-7-yl)-4-methylphenyl)sulfonyl)-4,5,6,7-tetrahydropyrazolo[1,4-a]pyrazine-3-carbonitrile] | < 100 nM
Cc1ccc(S(=O)(=O)N2CCn3cnc(C(=O)NCC(F)(F)F)c3C2)cc1-c1cnc2c(N)ncnn12 [Example 241, 7-((3-(4-aminoimidazo[2,1-f][1,2,4]triazin-7-yl)-4-methylphenyl)sulfonyl)-N-(2,2,2-trifluoroethyl)-5,6,7,8-tetrahydroimidazo[1,5-a]pyrazine-1-carboxamide] | < 100 nM
Cc1ccc(S(=O)(=O)Nc2ccc(C(=O)N3CC(O)C3)nc2)cc1-c1cnc2c(N)ncnn12 [Example 242, 3-(4-aminoimidazo[2,1-f][1,2,4]triazin-7-yl)-N-(6-(3-hydroxyazetidine-1-carbonyl)pyridin-3-yl)-4-methylbenzenesulfonamide] | < 100 nM
Cc1ccc(S(=O)(=O)Nc2cc3cn[nH]c3cn2)cc1-c1cnc2c(N)ncnn12 [Example 243, 3-(4-aminoimidazo[2,1-f][1,2,4]triazin-7-yl)-4-methyl-N-(1H-pyrazolo[3,4-c]pyridin-5-yl)benzenesulfonamide] | < 100 nM
CC(=O)Nc1ccc(NS(=O)(=O)c2ccc(C)c(-c3cnc4c(N)ncnn34)c2)cn1 [Example 244, N-(5-((3-(4-aminoimidazo[2,1-f][1,2,4]triazin-7-yl)-4-methylphenyl)sulfonamido)pyridin-2-yl)acetamide] | < 100 nM

Source: patent US10479795B2 (Incyte Corporation, priority 2016, dated 2019)
